Laboratory results from ChEMBL document CHEMBL2046354, “Identification of spirocyclic piperidine-azetidine inverse agonists of the ghrelin receptor” (Bioorg Med Chem Lett, 2012).

Test: Oral bioavailability in Sprague-Dawley rat at 30 mg/kg
Type: ADME, organism-based
Details: in vivo

- bioavailability: 43%
SMILES: Cc1cn2cc(CC(=O)N3CCC4(CC3)CN(Cc3ccc(-n5nccn5)cc3Cl)C4)nc2s1
